Data: PMC4060991, “The Human Orphan Nuclear Receptor Tailless (TLX, NR2E1) Is Druggable” (PLoS ONE, 2014)
Structures can show the parent of a compound that is named as a salt.

The compounds below were run against TLX LBD (Homo sapiens, UniProt Q9Y466) (assay: Differential scanning fluorimetry (DSF) on purified TLX LBD). Conditions: compound 500 µM.
Assay type: binding
Design: cDNA fragments encoding human TLX LBD (a.a. 187–385) were cloned; His6 followed by TEV protease cleavage site (N); made in house; host or cells: E. coli BL21 (DE3) star
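Also: thermal unfolding followed by Sypro-Orange fluorescence (excitation 465 nm, emission 610 nm) in 384-well plates, Tm taken from the first derivative of the denaturation curve, duplicate samples.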

Sequence of TLX LBD (Q9Y466 187-385): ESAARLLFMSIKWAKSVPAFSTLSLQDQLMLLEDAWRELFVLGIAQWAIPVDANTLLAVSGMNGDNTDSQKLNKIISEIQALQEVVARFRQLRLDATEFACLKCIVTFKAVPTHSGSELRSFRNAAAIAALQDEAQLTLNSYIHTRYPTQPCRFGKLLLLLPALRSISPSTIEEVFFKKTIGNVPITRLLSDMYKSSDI

Row | Compound | hit in DSF screen (able to bind TLX LBD, Tm shift 0.9°C or more), Table S1
1 | COc1cccc2cc(-c3nc([C@H]4CC[C@H](C(=O)O)CC4)n4ncnc(N)c34)[nH]c12 [OSI-027] | Hits from DSF
2 | CC(C)c1cnn2c(NCc3ccccc3)cc(NCCCCCCN)nc12 [N5-(6-Aminohexyl)-3-isopropyl-N7-benzylpyrazolo[1,5-a]pyrimidine-5,7-diamine] | Hits from DSF
3 | CC(=O)[O][Pb]([O]C(C)=O)([c]1ccccc1)[c]1ccccc1 [[acetyloxy-di(phenyl)plumbyl] acetate] | Hits from DSF
4 | Cc1cc(C(C)Nc2ccccc2)c2nc(N3CCOCC3)cc(=O)n2c1 (stereo not shown) [TGX-221] | Hits from DSF
5 | Nc1ncnc2c1c(-c1cccc(OCc3ccccc3)c1)cn2C1CC(CN2CCCC2)C1 (stereo not shown) [NVP-ADW742] | Hits from DSF
6 | CC(C)(C)OC(=O)N[C@H]1CCCCC/C=C\[C@@H]2C[C@@]2(C(=O)NS(=O)(=O)C2CC2)NC(=O)[C@@H]2C[C@@H](OC(=O)N3Cc4cccc(F)c4C3)CN2C1=O [Danoprevir] | Hits from DSF
7 | CC(=O)N1CCN(c2ccc(OCC3COC(Cn4ccnc4)(c4ccc(Cl)cc4Cl)O3)cc2)CC1 (stereo not shown) [Ketoconazole, reference compound] | Hits from DSF
8 | O=C1c2ccccc2C(=O)C1C(c1ccc([N+](=O)[O-])cc1)C1C(=O)c2ccccc2C1=O [2-[(1,3-dioxoinden-2-yl)-(4-nitrophenyl)methyl]indene-1,3-dione] | Hits from DSF
9 | CCN1CCN(C(=O)Cc2ccc(Nc3ncc(F)c(Nc4ccc(C(=O)Nc5ccccc5Cl)cc4)n3)cc2)CC1 [Aurora A Inhibitor I] | Hits from DSF
10 | Clc1ccccc1C(c1ccccc1)(c1ccccc1)n1ccnc1 [Clotrimazole, reference compound] | Hits from DSF
11 | N#Cc1c(O)c2c(-c3ccc(-c4ccccc4O)cc3)csc2[nH]c1=O [6,7-Dihydro-4-hydroxy-3-(2'-hydroxy[1,1'-biphenyl]-4-yl)-6-oxo-thieno[2,3-b]pyridine-5-carbonitrile] | Hits from DSF
12 | CC(=O)OC(C)(C)/C=C/C(=O)[C@](C)(O)[C@H]1[C@H](O)C[C@@]2(C)[C@@H]3CC=C4[C@@H](C[C@H](O)C(=O)C4(C)C)[C@]3(C)C(=O)C[C@]12C [[(E,6R)-6-[(2S,8S,9R,10R,13R,14S,16R,17R)-2,16-dihydroxy-4,4,9,13,14-pentamethyl-3,11-dioxo-2,7,8,10,12,15,16,17-octahydro-1H-cyclopenta[a]phenanthren-17-yl]-6-hydroxy-2-methyl-5-oxohept-3-en-2-yl] acetate] | Hits from DSF
13 | CO[C@H]1C[C@@H]2CC[C@@H](C)[C@@](O)(O2)C(=O)C(=O)N2CCCC[C@H]2C(=O)O[C@H]([C@H](C)C[C@@H]2CC[C@@H](OCCO)[C@H](OC)C2)CC(=O)[C@H](C)/C=C(\C)[C@@H](O)[C@@H](OC)C(=O)[C@H](C)C[C@H](C)/C=C/C=C/C=C/1C [Everolimus (RAD001), Everolimus, reference compound] | Hits from DSF
14 | O=C(CCc1ccc(O)cc1)c1c(O)cc(O)cc1O [Phloretin] | Hits from DSF
15 | Cc1ccc(NC(=O)c2ccc(CN3CCN(C)CC3)cc2)cc1Nc1nc(-c2cccnc2)cs1 [Masitinib] | Hits from DSF
16 | CC(=O)[C@H]1CC[C@H]2[C@@H]3CCC4=CC(=O)CC[C@]4(C)[C@H]3CC[C@]12C [Progesterone, reference compound] | Hits from DSF
17 | [Cl][Cd][Cl] [Dichlorocadmium] | Hits from DSF
18 | CO[C@H]1C[C@@H]2CC[C@@H](C)[C@@](O)(O2)C(=O)C(=O)N2CCCC[C@H]2C(=O)O[C@H]([C@H](C)C[C@@H]2CC[C@@H](OP(C)(C)=O)[C@H](OC)C2)CC(=O)[C@H](C)/C=C(\C)[C@@H](O)[C@@H](OC)C(=O)[C@H](C)C[C@H](C)/C=C/C=C/C=C/1C [Deforolimus] | Hits from DSF
19 | O=NN(CCCl)C(=O)NCc1ccc[n+]([O-])c1 [1-(2-chloroethyl)-1-nitroso-3-[(1-oxidopyridin-1-ium-3-yl)methyl]urea] | Hits from DSF
20 | CCC[CH2][Pb]([Cl])([CH2]CCC)[CH2]CCC [Tributyl(chloro)plumbane] | Hits from DSF
21 | O=C(c1ccc(OCCN2CCCCC2)cc1)c1c(-c2ccc(O)cc2)sc2cc(O)ccc12 [Raloxifene, reference compound] | Hits from DSF
22 | CCP(CC)CC.[Au+].[Cl-] [Chlorogold; Triethylphosphane] | Hits from DSF
23 | O=[N+]([O-])c1cc(C(F)(F)F)cc([N+](=O)[O-])c1CCl [2-(chloromethyl)-1,3-dinitro-5-(trifluoromethyl)benzene] | Hits from DSF

Row | Compound | hit in DSF screen (able to bind TLX LBD, Tm shift 0.9°C or more), Table S1
24 | CNC(=O)ON(C(C)=O)C(=O)NC [[acetyl(methylcarbamoyl)amino] N-methylcarbamate] | Hits from DSF
25 | N#C/C(=C\c1ccc2ccccc2c1)C(=O)c1ccccc1 [(E)-2-(benzoyl)-3-naphthalen-2-ylprop-2-enenitrile] | Hits from DSF
26 | CC(C)n1c(/C=C/C(O)CC(O)CC(=O)O)c(-c2ccc(F)cc2)c2ccccc21 (stereo not shown) [Fluvastatin Sodium, reference compound] | Hits from DSF
27 | CC(C)C1(Cl)CCC2C3(C)CCCC(C)(C(=O)O)C3CC(Cl)C2(Cl)C1Cl (stereo not shown) [7,8,8a,9-tetrachloro-1,4a-dimethyl-7-propan-2-yl-2,3,4,4b,5,6,8,9,10,10a-decahydrophenanthrene-1-carboxylic acid] | Hits from DSF
28 | CCCCCC(CN1CCOCC1)C(=O)C=Cc1ccccc1 (stereo not shown) [4-(morpholin-4-ylmethyl)-1-phenylnon-1-en-3-one] | Hits from DSF
29 | CC(=O)[O][Hg][c]1c(C)c(C)c(C)c(C)c1C [acetyloxy-(2,3,4,5,6-pentamethylphenyl)mercury] | Hits from DSF
30 | Cn1cc(-c2ccc3nnc(Sc4ccc5ncccc5c4)n3n2)cn1 [SGX-523] | Hits from DSF
31 | Acetyloxymercury; Phenanthrene | Hits from DSF
32 | C[C@@H](NCCCc1cccc(C(F)(F)F)c1)c1cccc2ccccc12 [Cinacalcet hydrochloride, reference compound] | Hits from DSF
33 | FC(F)c1nc2ccccc2n1-c1nc(N2CCOCC2)nc(N2CCOCC2)n1 [ZSTK474] | Hits from DSF
34 | COc1cc2c(cc1O)CC[C@@H]1[C@@H]2CC[C@]2(C)[C@@H](O)CC[C@@H]12 [2-Methoxyestradiol] | Hits from DSF
35 | C[C@]12CC[C@H]3[C@@H](CCC4=CC(=O)CC[C@@]43C)[C@@H]1CC[C@@H]2OC(=O)CCC1CCCC1 [Testosterone cypionate, reference compound] | Hits from DSF
36 | O=C(O)c1ccc(NC(c2ccccc2)c2ccc3cccnc3c2O)cc1 (stereo not shown) [4-[[(8-hydroxyquinolin-7-yl)-phenylmethyl]amino]benzoic acid] | Hits from DSF
37 | CCOC(=O)N1CCC(=C2c3ccc(Cl)cc3CCc3cccnc32)CC1 [Loratadine, reference compound] | Hits from DSF
38 | COc1cc(Nc2ncc3c(n2)-c2ccc(Cl)cc2C(c2c(F)cccc2OC)=NC3)ccc1C(=O)O [MLN8237] | Hits from DSF
39 | CN(C)c1ccc(C=CC(=O)[O-])cc1.CN(C)c1ccc(C=CC(=O)[O-])cc1.[Cu+2] [copper 3-(4-dimethylaminophenyl)prop-2-enoate] | Hits from DSF
40 | Cc1ccc(S(=O)(=O)c2ccc([N+](=O)[O-])o2)cc1 [2-(4-methylphenyl)sulfonyl-5-nitrofuran] | Hits from DSF
41 | CCCCCCCCCCCCC(O)C(=O)O (stereo not shown) [2-hydroxytetradecanoic acid] | Hits from DSF
42 | Daptomycin [reference compound] | Hits from DSF
43 | N#CCNC(=O)c1ccc(-c2ccnc(Nc3ccc(N4CCOCC4)cc3)n2)cc1 [CYT387] | Hits from DSF
44 | CCC1=C[C@@H]2CN(C1)Cc1c([nH]c3ccccc13)[C@@](C(=O)OC)(c1cc3c(cc1OC)N(C)[C@H]1[C@@](O)(C(=O)OC)[C@H](OC(C)=O)[C@]4(CC)C=CCN5CC[C@]31[C@@H]54)C2 [Vinorelbine, reference compound] | Hits from DSF
45 | Kauroic acid | Hits from DSF
46 | COC1CC(CC2CCC(C)C(C(C)C(=O)O)O2)OC2(OC(C)(C3CCC(C)(C4OC(C5OC(O)(CO)C(C)CC5C)CC4C)O3)CC2C)C1C (stereo not shown) [2-[6-[[2-[5-[5-[6-hydroxy-6-(hydroxymethyl)-3,5-dimethyloxan-2-yl]-3-methyloxolan-2-yl]-5-methyloxolan-2-yl]-9-methoxy-2,4,10-trimethyl-1,6-dioxaspiro[4.5]decan-7-yl]methyl]-3-methyloxan-2-yl]propanoic acid] | Hits from DSF
